Converted amounts (≈) assume the structure as drawn. Bounds are passed on as bounds.

Experimental findings from ChEMBL document CHEMBL4373717, “Coumarin-containing hybrids and their anticancer activities” (Eur J Med Chem, 2019) are described below.

For one assay, the system named is NCI-H157. Nature of the assay: Cytotoxicity against human NCI-H157 cells assessed as reduction in cell viability after 48 hrs by SRB assay. Type of assay: functional, cell-based. To be noted: NCI-H157, 48 h. (In general: The SRB assay estimates cell density from bound dye.)
A further assay relates to BHK-21. Put plainly: Cytotoxicity against BHK21 cells assessed as reduction in cell viability after 48 hrs by SRB assay. Type of assay: cell-based. To be noted: Mesocricetus auratus, BHK-21, 48 h.
The test system of assay [1] is MCF7. Put plainly: Cytotoxicity against human MCF7 cells assessed as reduction in cell viability by SRB assay. The format is functional, cell-based.
A short description of assay [2]: Cytotoxicity against human MCF7/DX cells assessed as reduction in cell viability by SRB assay. The format is functional, cell-based.
The next assay concerns DU-145. Put plainly: Cytotoxicity against human DU145 cells assessed as reduction in cell viability by SRB assay. Type of assay: functional, cell-based.
A further assay concerns SK-OV-3. Put plainly: Cytotoxicity against human SKOV3 cells assessed as reduction in cell viability by SRB assay. Type of assay: functional, cell-based.
Assay [3] has as its system A549. Put plainly: Cytotoxicity against human A549 cells assessed as reduction in cell viability by SRB assay. The format is functional, cell-based.
In assay [4] the test system is HepG2. Nature of the assay: Cytotoxicity against human HepG2 cells assessed as reduction in cell viability by SRB assay. The format is functional, cell-based.
The subject of assay [5] is HeLa. Nature of the assay: Cytotoxicity against human HeLa cells assessed as reduction in cell viability by SRB assay. Type of assay: functional, cell-based.
Assay [6] relates to HepG2. Put plainly: Cytotoxicity against human HepG2 cells assessed as reduction in cell viability. Type of assay: functional, cell-based.
A further assay deals with DLD-1. Nature of the assay: Cytotoxicity against human DLD1 cells assessed as reduction in cell viability. Type of assay: functional, cell-based.
In assay [7] the test system is HeLa. Nature of the assay: Antiproliferative activity against human HeLa cells by MTT assay. The format is functional, cell-based.
Assay [8] concerns the target RAC-alpha serine/threonine-protein kinase (Homo sapiens, UniProt P31749). Nature of the assay: Inhibition of AKT phosphorylation in human K562 cells. The format is cell-based.
In assay [9] the test system is MCF7. Put plainly: Cytotoxicity against human MCF7 cells assessed as reduction in cell viability after 68 hrs by MTT assay. To be noted: MCF7, 68 h. The format is functional, cell-based. Background: Formazan colour is commonly taken as a measure of viable cells.
For assay [10], the system named is HeLa. Nature of the assay: Cytotoxicity against human HeLa cells assessed as reduction in cell viability after 68 hrs by MTT assay. The format is functional, cell-based.
In another assay the test system is K562. Nature of the assay: Cytotoxicity against human K562 cells assessed as reduction in cell viability after 68 hrs by MTT assay. Type of assay: functional, cell-based. Particulars: K562, 68 h.
The subject of assay [11] is A549. Put plainly: Cytotoxicity against human A549 cells assessed as reduction in cell viability after 68 hrs by MTT assay. Type of assay: functional, cell-based. To be noted: A549, 68 h.

Sequence of RAC-alpha serine/threonine-protein kinase (P31749 whole entry): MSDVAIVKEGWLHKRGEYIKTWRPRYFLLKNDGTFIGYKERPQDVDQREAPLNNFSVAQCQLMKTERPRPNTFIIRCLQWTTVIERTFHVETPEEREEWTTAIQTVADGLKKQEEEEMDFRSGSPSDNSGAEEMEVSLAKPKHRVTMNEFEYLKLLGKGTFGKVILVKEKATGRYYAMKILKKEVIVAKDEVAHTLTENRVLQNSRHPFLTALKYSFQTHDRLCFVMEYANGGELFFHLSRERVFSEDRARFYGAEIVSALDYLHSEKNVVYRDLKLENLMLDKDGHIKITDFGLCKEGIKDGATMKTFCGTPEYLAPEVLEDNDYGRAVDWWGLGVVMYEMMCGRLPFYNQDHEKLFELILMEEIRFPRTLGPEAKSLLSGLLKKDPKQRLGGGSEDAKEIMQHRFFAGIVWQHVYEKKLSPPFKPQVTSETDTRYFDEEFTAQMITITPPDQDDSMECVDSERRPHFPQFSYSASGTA

In the case of `O=c1oc2ccccc2cc1-c1nnc2n1N=C(c1ccc([N+](=O)[O-])cc1)CS2`, the IC50 in the assay with NCI-H157 and with BHK-21 was 1.01 to 5.72 µM in each case.

Take `O=c1oc2ccccc2cc1-c1nnc2n1N=C(c1ccc(F)cc1)CS2`: the half-inhibitory concentration (IC50) with NCI-H157 and in the assay on BHK-21 was 1.01 to 5.72 µM each time.

With `O=c1oc2ccccc2cc1-c1nnc2n1N=C(c1ccc(Cl)cc1)CS2`, the IC50 in the assay on NCI-H157 and in the assay on BHK-21 was 1.01 to 5.72 µM throughout.

With `Cc1cc(=O)oc2cc(OCCOCCN3C(=O)C(=O)c4ccccc43)ccc12`, the IC50 (in the assay on MCF7 [1]; in [2]; with DU-145; in the assay with SK-OV-3; with A549 [3]; in the assay on HepG2 [4]) was 10.3 to 50 µM in each case. For the same molecule, the IC50 (commonly the concentration that inhibits the measured activity by half) with HeLa [5] was in the range of 10.3 to 50 µM.

Regarding `Cc1ccc2c(c1)C(=O)C(=O)N2CCOCCOc1ccc2c(C)cc(=O)oc2c1`, the IC50 (in the assay with MCF7 [1]; in assay [2]; in the assay on DU-145; in the assay with SK-OV-3; with A549 [3]; in the assay with HepG2 [4]) was 10.3 to 50 µM throughout. Moreover, the IC50 in the assay with HeLa [5] was 10.3 to 50 µM.

With `Cc1cc(=O)oc2cc(OCCOCCN3C(=O)/C(=N\O)c4cc(F)ccc43)ccc12`, the IC50 (in the assay on MCF7 [1]; in assay [2]; in the assay with DU-145; with SK-OV-3; in the assay on A549 [3]; in the assay on HepG2 [4]) was 10.3 to 50 µM throughout. The 50% inhibitory concentration (IC50) in the assay with HeLa [5] lay in the range of 10.3 to 50 µM.

On to `O=C(c1cnc(Nc2ccc(F)cc2)s1)c1cc2ccccc2oc1=O`, for which the 50% inhibitory concentration (IC50) in the assay on HepG2 [6] and in the assay on DLD-1 was 5.66 to 100 µg/mL (≈ 15.4 to 273 µM) in each case.

As to `O=C(c1cnc(Nc2ccc(Br)cc2)s1)c1cc2ccccc2oc1=O`, the 50% inhibitory concentration (IC50) in the assay on HepG2 [6] and with DLD-1 was 5.66 to 100 µg/mL (≈ 13.2 to 234 µM) in each case.

Regarding `O=c1oc2ccccc2cc1C1=Nn2c(nnc2-c2cc3ccccc3oc2=O)SC1`, the IC50 in the assay with NCI-H157 and in the assay with BHK-21 was 1.01 to 5.72 µM in each case.

For `CCNc1ncc(C(=O)c2cc3ccccc3oc2=O)s1`, the IC50 with HepG2 [6] and in the assay on DLD-1 was 5.66 to 100 µg/mL (≈ 18.8 to 333 µM) each time.

Take `Cc1ccc(C2=Nn3c(nnc3-c3cc4ccccc4oc3=O)SC2)cc1`: the IC50 with NCI-H157 and in the assay with BHK-21 was 1.01 to 5.72 µM each time.

In turn, `CCOC(=O)c1sc(N/N=C(\C)c2cc3cc(Cl)ccc3oc2=O)nc1C` gave an IC50 with HeLa [7] of 0.0091 to 0.569 µM.

On to `COC(=O)c1sc(N/N=C(\C)c2cc3cc(Cl)ccc3oc2=O)nc1C`, for which the 50% inhibitory concentration (IC50) in the assay with HeLa [7] lay in the range of 0.0091 to 0.569 µM.

Take `Cc1ccc(NC(=O)Nc2ccc(Cc3c(C)c4cc(C(C)(C)C)c(O)cc4oc3=O)cn2)cc1`: the IC50 in assay [8] is under 10 µM; with MCF7 [9], 1.66 to 9.27 µM; with HeLa [10], 1.66 to 9.27 µM; in the assay with K562, 1.66 to 9.27 µM; in the assay with A549 [11], 1.66 to 9.27 µM.

For `O=c1oc2ccccc2cc1-c1nnc2n1N=C(c1ccc(Cl)c(Cl)c1)CS2`, the IC50 was 1.73 µM in the assay on NCI-H157 and 1.39 µM in the assay on BHK-21.

Take `Cc1c(Cc2ccc(NC(=O)Nc3ccc(Br)cc3)nc2)c(=O)oc2cc(O)c(C(C)(C)C)cc12`: the concentration for half-maximal inhibition (IC50) is under 10 µM in assay [8]; 1.66 to 9.27 µM with MCF7 [9]; 1.66 to 9.27 µM in the assay with HeLa [10]; 1.66 to 9.27 µM in the assay with K562; 1.66 to 9.27 µM with A549 [11].

Consider `Cc1cc(=O)oc2cc(OCCOCCN3C(=O)/C(=N\O)c4cc(Cl)ccc43)ccc12`, for which the 50% inhibitory concentration (IC50) (in the assay on MCF7 [1]; in assay [2]; in the assay on DU-145; with SK-OV-3; with A549 [3]; in the assay with HepG2 [4]) was 10.3 to 50 µM throughout. Further, the IC50 in the assay with HeLa [5] lay in the range of 10.3 to 50 µM.

Consider `COc1ccc(/C(C)=N/Nc2ncc(C(=O)c3cc4ccccc4oc3=O)s2)cc1`, for which the EC50 in the assay on HepG2 [6] and with DLD-1 was 3.7 to 9.54 µg/mL (≈ 8.82 to 22.7 µM) throughout.

In the assay with HeLa [7], `CCOC(=O)c1sc(N/N=C(\C)c2cc3cc(Br)ccc3oc2=O)nc1C` had an IC50 of 0.0091 to 0.569 µM.

For `O=c1oc2ccccc2cc1-c1nnc2n1N=C(c1ccc(-c3ccccc3)cc1)CS2`, the IC50 with NCI-H157 and in the assay with BHK-21 was 1.01 to 5.72 µM throughout.

`CCOC(=O)c1sc(N/N=C(\C)c2cc3ccccc3oc2=O)nc1C` registered a 50% inhibitory concentration (IC50) in the assay with HeLa [7] of 0.0091 to 0.569 µM.
